Results from ChEMBL document CHEMBL3045666, “The phytotoxicity of natural tetramic acid derivatives” (Pest Manag Sci, 2011).
≈ marks a conversion by molar mass, not a printed value.

Experiments:
[1] = Inhibition of PS2 at 100 uM
[2] = Inhibition of PS2 at 50 uM
Lemna minor [3] = test: Herbicidal activity against Lemna minor (common duckweed) at 50 uM; format: functional; conditions: read-out: GI
Lemna minor [4] = test: Herbicidal activity against Lemna minor (common duckweed) at 100 uM; format: functional
Desmodesmus subspicatus = test: Antimicrobial activity against Scenedesmus subspicatus SAG 86.81 assessed as growth inhibition; format: functional
Synechococcus = test: Antimicrobial activity against cyanobacteria Synechococcus PCC 6911 assessed as growth inhibition; format: functional
Tetradesmus obliquus = test: Antimicrobial activity against Acutodesmus obliquus SAG 276-1 assessed as growth inhibition; format: functional
Ipomoea hederacea [5] = test: Herbicidal activity against Ipomoea hederacea (ivy-leaved morning glory) assessed as growth reduction at 3 mg/ha; format: functional
Helianthus annuus [6] = test: Herbicidal activity against Helianthus annuus (sunflower) assessed as growth reduction at 3 mg/ha; format: functional
Avena fatua [7] = test: Herbicidal activity against Avena fatua assessed as growth reduction at 3 mg/ha; format: functional
Setaria faberi [8] = test: Herbicidal activity against Setaria faberi (Giant Foxtail) assessed as growth reduction at 3 mg/ha; format: functional
Helianthus annuus [9] = test: Herbicidal activity against Helianthus annuus (sunflower) assessed as growth reduction at 1 mg/ha; format: functional
Avena fatua [10] = test: Herbicidal activity against Avena fatua assessed as growth reduction at 1 mg/ha; format: functional
Ipomoea hederacea [11] = test: Herbicidal activity against Ipomoea hederacea (ivy-leaved morning glory) assessed as growth reduction at 1 mg/ha; format: functional
Setaria faberi [12] = test: Herbicidal activity against Setaria faberi (Giant Foxtail) assessed as growth reduction at 1 mg/ha; format: functional

SMILES: CCCCCC#CC#C/C=C/CC(C)C[C@@H]1C[C@H](C)/C(=C2/C(=O)C(C)N(C)C2=O)N1N (stereo not given in full) [FISCHERELLIN A]
- inhibition [1]: 98%
- inhibition [2]: 60%
- inhibition of growth at 50 µM (Lemna minor [3]): 44%
- inhibition at 100 µM (Lemna minor [4]): 74%
- MIC (Desmodesmus subspicatus): 0.5 µM (≈ 0.212 µg/mL)
- MIC (Synechococcus): 0.5 µM (≈ 0.212 µg/mL)
- MIC (Tetradesmus obliquus): 0.5 µM (≈ 0.212 µg/mL)

SMILES: C[C@H]1CCC[C@H]2O[C@@H]2COc2ccc(cc2)C[C@H]2NC(=O)/C(=C/1O)C2=O [MACROCIDIN A]
- growth inhibition (GI) (Ipomoea hederacea [5]): 0%
- growth inhibition (GI) (Helianthus annuus [6]): 50%
- growth inhibition (GI) (Avena fatua [7]): 0%
- growth inhibition (GI) (Setaria faberi [8]): 65%

SMILES: C[C@@H]1/C(O)=C2/C(=O)N[C@H](Cc3ccc(cc3)OC[C@H]3O[C@@H]3CCC1O)C2=O (stereo not given in full) [MACROCIDIN B]
- growth inhibition (GI) (Helianthus annuus [9]): 50%
- growth inhibition (GI) (Avena fatua [10]): 0%
- growth inhibition (GI) (Ipomoea hederacea [11]): 0%
- growth inhibition (GI) (Setaria faberi [12]): 20%
